Assay results as given in US9409870B2, “Compounds” (CHIESI FARMACEUTICI S.p.A., priority 2014, dated 2016).
Counter-ions that a name gives are not always drawn.

The compounds below were run against T1, human neutrophil elastase (HNE) (Homo sapiens, UniProt P08246) (assay: HNE enzyme activity assay (fluorogenic peptide substrate MeOSuc-Ala-Ala-Pro-Val-AMC)). Settings: human leukocyte elastase 0.00072 U/mL, substrate 100 μM, 25° C., 30 minutes, pH 7.5; at least two separate experiments; read-out: FINE inhibition (HNE enzyme inhibition, IC50 values).
T1 construct: purchased Sigma E8140
T1 sequence (P08246 30-247 limits assumed): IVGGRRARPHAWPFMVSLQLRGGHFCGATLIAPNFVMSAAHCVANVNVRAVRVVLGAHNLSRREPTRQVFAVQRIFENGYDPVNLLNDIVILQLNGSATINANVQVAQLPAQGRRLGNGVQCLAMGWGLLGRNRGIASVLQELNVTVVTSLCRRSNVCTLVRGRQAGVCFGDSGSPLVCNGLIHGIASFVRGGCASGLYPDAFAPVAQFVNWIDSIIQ
Assay type: biochemical
Method: Compounds of this invention were tested for potency in a human neutrophil elastase (HNE) enzyme activity assay.
Assays were performed in 96-well plates in a total assay volume of 100 μL. The final concentration of elastase enzyme (human leukocyte elastase, Sigma E8140) was 0.00072 U/mL. The peptide substrate (MeOSuc-Ala-Ala-Pro-Val-AMC, Calbiochem #324740) was used at a final concentration of 100 μM. The final concentration of DMSO was 1% in the assay buffer (0.05M Tris.HCl, 0.1M NaCl, 0.1M CaCl2, 0.0005% brij-35, pH 7.5). The enzymatic reaction was started by addition of the enzyme and incubated at 25° C. for 30 minutes. After incubation, the reaction was stopped by addition of soybean trypsin inhibitor (Sigma T9003) at a final concentration of 50 μg/well. Fluorescence was measured using a Molecular Devices fluorescence plate reader using 380 nm excitation and 460 nm emission wavelengths.
A dose response to each compound was performed and the effect of compound in each experiment was expressed as a percentage inhibition of the control enzyme fluorescence. Dose response curves were plotted and compound potency (IC50) was determined. Compounds were tested in at least two separate experiments.

Row | Compound | IC50
1 | Cc1c(-c2ccnn2-c2ccc(C#N)cc2)n(CC(=O)OC(C)(C)C)c(=O)n1-c1cccc(C(F)(F)F)c1 [Example 20, tert-Butyl-{5-[1-(4-cyanophenyl)-1H-pyrazol-5-yl]-4-methyl-2-oxo-3-[3-(trifluoromethyl)phenyl]-2,3-dihydro-1H-imidazol-1-yl}acetate] | 10 to 50 nM
2 | CCN(C)C(=O)n1c(-c2ccnn2-c2ccc(C#N)cc2)c(C)n(-c2cccc(C(F)(F)F)c2)c1=O [Example 21, 5-[1-(4-Cyanophenyl)-1H-pyrazol-5-yl]-N-ethyl-N,4-dimethyl-2-oxo-3-[3-(trifluoromethyl)phenyl]-2,3-dihydro-1H-imidazole-1-carboxamide] | 10 to 50 nM
3 | Cc1c(-c2ccnn2-c2ccc(C#N)cc2)n(CC(=O)O)c(=O)n1-c1cccc(C(F)(F)F)c1 [Example 22, {5-[1-(4-Cyanophenyl)-1H-pyrazol-5-yl]-4-methyl-2-oxo-3-[3-(trifluoromethyl)phenyl]-2,3-dihydro-1H-imidazol-1-yl}acetic acid] | 10 to 50 nM
4 | CNC(=O)Cn1c(-c2ccnn2-c2ccc(C#N)cc2)c(C)n(-c2cccc(C(F)(F)F)c2)c1=O [Example 23, 2-{5-[1-(4-Cyanophenyl)-1H-pyrazol-5-yl]-4-methyl-2-oxo-3-[3-(trifluoromethyl)phenyl]-2,3-dihydro-1H-imidazol-1-yl}-N-methylacetamide] | 10 to 50 nM
5 | Cc1c(-c2ccnn2-c2ccc(C#N)cc2)n(C(=O)NCCC[N+](C)(C)C)c(=O)n1-c1cccc(C(F)(F)F)c1 [Example 24, Benzenesulfonate 3-[({5-[1-(4-cyanophenyl)-1H-pyrazol-5-yl]-4-methyl-2-oxo-3-[3-(trifluoromethyl)phenyl]-2,3-dihydro-1H-imidazol-1-yl}carbonyl)amino]-N,N,N-trimethylpropan-1-aminium] | 1 to 10 nM
6 | Cc1c(-c2ccnn2-c2ccc(C#N)cc2)n(C(=O)NCC[N+](C)(C)C)c(=O)n1-c1cccc(C(F)(F)F)c1 [Example 25, Benzenesulfonate 2-[({5-[1-(4-cyanophenyl)-1H-pyrazol-5-yl]-4-methyl-2-oxo-3-[3-(trifluoromethyl)phenyl]-2,3-dihydro-1H-imidazol-1-yl}carbonyl)amino]-N,N,N-trimethylethanaminium] | 1 to 10 nM
7 | CCCCn1c(-c2ccnn2-c2ccc(C#N)cc2)c(C)n(-c2cccc(C(F)(F)F)c2)c1=O [Example 26, 4-(5-{3-Butyl-5-methyl-2-oxo-1-[3-(trifluoromethyl)phenyl]-2,3-dihydro-1H-imidazol-4-yl}-1H-pyrazol-1-yl)benzonitrile] | 1 to 10 nM
8 | Cc1c(-c2ccnn2-c2ccc(C#N)cc2)n(S(C)(=O)=O)c(=O)n1-c1cccc(C(F)(F)F)c1 [Example 27, 4-(5-{5-Methyl-3-(methylsulfonyl)-2-oxo-1-[3-(trifluoromethyl)phenyl]-2,3-dihydro-1H-imidazol-4-yl}-1H-pyrazol-1-yl)benzonitrile] | < 1 nM
9 | CCCC(C)n1c(-c2ccnn2-c2ccc(C#N)cc2)c(C)n(-c2cccc(C(F)(F)F)c2)c1=O (stereo not drawn) [Example 28, 4-{5-[5-Methyl-3-(1-methyl-butyl)-2-oxo-1-(3-trifluoromethyl-phenyl)-2,3-dihydro-1H-imidazol-4-yl]pyrazol-1-yl}-benzonitrile] | 1 to 10 nM
10 | Cc1c(-c2ccnn2-c2ccc(C#N)cc2)n(CCN(C)C)c(=O)n1-c1cccc(C(F)(F)F)c1 [Example 29, 4-{5-[3-(2-Dimethylamino-ethyl)-5-methyl-2-oxo-1-(3-trifluoromethylphenyl)-2,3-dihydro-1H-imidazol-4-yl]-pyrazol-1-yl}-benzonitrile] | 1 to 10 nM
11 | Cc1c(-c2ccnn2-c2ccc(C#N)cc2)n(CCCN(C)C)c(=O)n1-c1cccc(C(F)(F)F)c1 [Example 30, 4-{5-[3-(3-Dimethylamino-propyl)-5-methyl-2-oxo-1-(3-trifluoromethylphenyl)-2,3-dihydro-1H-imidazol-4-yl]-pyrazol-1-yl}-benzonitrile] | 1 to 10 nM
12 | CCCS(=O)(=O)n1c(-c2ccnn2-c2ccc(C#N)cc2)c(C)n(-c2cccc(C(F)(F)F)c2)c1=O [Example 31, 4-{5-[5-Methyl-2-oxo-3-(propane-1-sulfonyl)-1-(3-trifluoromethyl-phenyl)-2,3-dihydro-1H-imidazol-4-yl]-pyrazol-1-yl}-benzonitrile] | 1 to 10 nM
13 | Cc1c(-c2ccnn2-c2ccc(C#N)cc2)n(S(=O)(=O)C2CC2)c(=O)n1-c1cccc(C(F)(F)F)c1 [Example 32, 4-{5-[3-Cyclopropanesulfonyl-5-methyl-2-oxo-1-(3-trifluoromethyl-phenyl)-2,3-dihydro-1H-imidazol-4-yl]-pyrazol-1-yl}-benzonitrile] | < 1 nM
14 | CCNS(=O)(=O)n1c(-c2ccnn2-c2ccc(C#N)cc2)c(C)n(-c2cccc(C(F)(F)F)c2)c1=O [Example 33, 5-[2-(4-Cyano-phenyl)-2H-pyrazol-3-yl]-4-methyl-2-oxo-3-(3-trifluoromethylphenyl)-2,3-dihydro-imidazole-1-sulfonic acid ethylamide] | 1 to 10 nM
15 | Cc1c(-c2ccnn2-c2ccc(C#N)cc2)n(S(=O)(=O)NC2CCCC2)c(=O)n1-c1cccc(C(F)(F)F)c1 [Example 34, 5-[2-(4-Cyano-phenyl)-2H-pyrazol-3-yl]-4-methyl-2-oxo-3-(3-trifluoromethylphenyl)-2,3-dihydro-imidazole-1-sulfonic acid cyclopentylamide] | < 1 nM
16 | Cc1c(-c2ccnn2-c2ccc(C#N)cc2)n(S(=O)(=O)NC2CC2)c(=O)n1-c1cccc(C(F)(F)F)c1 [Example 35, 5-[2-(4-Cyano-phenyl)-2H-pyrazol-3-yl]-4-methyl-2-oxo-3-(3-trifluoromethylphenyl)-2,3-dihydro-imidazole-1-sulfonic acid cyclopropylamide] | 1 to 10 nM
17 | Cc1c(-c2ccnn2-c2ccc(C#N)cc2)n(CC(=O)N2CCCC2)c(=O)n1-c1cccc(C(F)(F)F)c1 [Example 36, 4-{5-[5-Methyl-2-oxo-3-(2-oxo-2-pyrrolidin-1-yl-ethyl)-1-(3-trifluoromethylphenyl)-2,3-dihydro-1H-imidazol-4-yl]-pyrazol-1-yl}-benzonitrile] | 1 to 10 nM
18 | Cc1c(-c2ccnn2-c2ccc(C#N)cc2)n(CC(=O)N(C)C)c(=O)n1-c1cccc(C(F)(F)F)c1 [Example 37, 2-[5-[2-(4-Cyano-phenyl)-2H-pyrazol-3-yl]-4-methyl-2-oxo-3-(3-trifluoromethyl-phenyl)-2,3-dihydro-imidazol-1-yl]-N,N-dimethyl-acetamide] | 1 to 10 nM
19 | Cc1c(-c2ccnn2-c2ccc(C#N)cc2)n(CC(=O)N2CCN(C)CC2)c(=O)n1-c1cccc(C(F)(F)F)c1 [Example 38, 4-{5-[5-Methyl-3-[2-(4-methyl-piperazin-1-yl)-2-oxo-ethyl]-2-oxo-1-(3-trifluoromethyl-phenyl)-2,3-dihydro-1H-imidazol-4-yl]-pyrazol-1-yl}-benzonitrile] | 1 to 10 nM
20 | Cc1c(-c2ccnn2-c2ccc(C#N)cc2)n(CC(=O)NCCCN(C)C)c(=O)n1-c1cccc(C(F)(F)F)c1 [Example 39, 2-[5-[2-(4-Cyano-phenyl)-2H-pyrazol-3-yl]-4-methyl-2-oxo-3-(3-trifluoromethyl-phenyl)-2,3-dihydro-imidazol-1-yl]-N-(3-dimethylaminopropyl)-acetamide formic acid salt] | 10 to 50 nM
21 | Cc1c(-c2ccnn2-c2ccc(C#N)cc2)n(CC(=O)N(C)C2CCC2)c(=O)n1-c1cccc(C(F)(F)F)c1 [Example 40, 2-[5-[2-(4-Cyano-phenyl)-2H-pyrazol-3-yl]-4-methyl-2-oxo-3-(3-trifluoromethyl-phenyl)-2,3-dihydro-imidazol-1-yl]-N-cyclobutyl-N-methyl-acetamide] | 1 to 10 nM
22 | Cc1c(-c2ccnn2-c2ccc(C#N)cc2)n(C(=O)NC2CCC2)c(=O)n1-c1cccc(C(F)(F)F)c1 [Example 41, 5-[2-(4-Cyano-phenyl)-2H-pyrazol-3-yl]-4-methyl-2-oxo-3-(3-trifluoromethyl-phenyl)-2,3-dihydro-imidazole-1-carboxylic acid cyclobutylamide] | < 1 nM
23 | Cc1c(-c2ccnn2-c2ccc(C#N)cc2)n(C(=O)NC2CC2)c(=O)n1-c1cccc(C(F)(F)F)c1 [Example 42, 5-[2-(4-Cyano-phenyl)-2H-pyrazol-3-yl]-4-methyl-2-oxo-3-(3-trifluoromethyl-phenyl)-2,3-dihydro-imidazole-1-carboxylic acid cyclopropylamide] | < 1 nM
24 | CCS(=O)(=O)N1CCC(NC(=O)n2c(-c3ccnn3-c3ccc(C#N)cc3)c(C)n(-c3cccc(C(F)(F)F)c3)c2=O)CC1 [Example 43, 5-[2-(4-Cyano-phenyl)-2H-pyrazol-3-yl]-4-methyl-2-oxo-3-(3-trifluoromethyl-phenyl)-2,3-dihydro-imidazole-1-carboxylic acid (1-ethanesulfonyl-piperidin-4-yl)-amide] | < 1 nM
